The results in this text go back to patent US20260263376A1, “THERAPEUTIC DELIVERY VECTORS COMPRISING AMPHIPHILIC BLOCK COPOLYMERS” (Swansea University, priority 2023, published 2026).

The subject of one assay is SKOV-3 WT. As to the kind of experiment: Endocytosis elucidation with chemical inhibitors prior to NP(DiD) treatment, flow cytometry. To be noted: inhibitor before NP treatment. The assay is classed as cell-based. The method, then: (§1) FIG. 19 NP(DiD) uptake following 24 h exposure in OVCAR-3 (a) and SKOV-3 (b). Uptake quantification measured using corrected total cell fluorescence method and plotted for 24 (c), 48 (d) and 72 h (e) NP(DiD) treatments. Endocytosis elucidation conducted using chemical inhibitors, prior to NP(DiD) treatments and cells analyzed using flow cytometry. Example of cell population positive for NP8 in SKOV-3 WT (f) and endocytosis pathway distribution graphs for OVCAR-3 WT (g) and SKOV-3 (h).
Internalization and quantification of nanoparticles was characterized using fluorescently labelled nanoparticles, Vybrant DiD™ loaded particles were fabricated (co-dissolution as previously described) followed by spin filtration to remove non-encapsulated dye. 2D Cell cultures were treated with NP(DiD) for 24, 48 and 72 h. […] Corrected total cell fluorescence (CTCF) was calculated.[36] Microtissue penetration was conducted using the same fluorescently labelled NPs. Spheroids (2×10^3 cells) were seeded 48 h prior to use, 10 spheroids per NP were treated for 24 h with 20 μL stock NP(DiD).[37] […] Data was visualized using MATLAB code form CellStream exports to create violin plots of total populations. […] Nanoparticle, cell counter staining and imaging all conducted as described above. Uptake thresholding into binary high and low uptake conditions was conducted using quantification histograms and manual identification of population peaks.
Background: Flow cytometry measures light scatter and fluorescence of single cells or particles in a stream.

The test system of the next assay is OVCAR-3 WT. Described as above. The assay is classed as cell-based. To be noted: inhibitor before NP treatment. The method, then:
as §1
Internalization and quantification of nanoparticles was characterized using fluorescently labelled nanoparticles, Vybrant DiD™ loaded particles were fabricated (co-dissolution as previously described) followed by spin filtration to remove non-encapsulated dye. 2D Cell cultures were treated with NP(DiD) for 24, 48 and 72 h. 426 Cells were co-stained for nuclei using 16.2 μM Hoescht. Cells were imaged using CLSM or quantified following detachment using CellStream (A2 for DAPI channel, 428 B6 for DiD channel). Corrected total cell fluorescence (CTCF) was calculated.[36] Microtissue penetration was conducted using the same fluorescently labelled NPs. […] Uptake thresholding into binary high and low uptake conditions was conducted using quantification histograms and manual identification of population peaks.

For `CCN(CC)CCCC(C)Nc1ccnc2cc(Cl)ccc12` (stereo not shown) [chloroquine], in the assay with SKOV-3 WT, the “increase in cell population positive for NPs” value is 3% and the “increase in mean florescence” value was 3×10^5.
With NAV 2729, the drop in fluorescence in the assay on SKOV-3 WT and with OVCAR-3 WT was 90% in each case.
